Results from ChEMBL document CHEMBL5291721, “A preclinical secondary pharmacology resource illuminates target-adverse drug reaction associations of marketed drugs” (Nat Commun, 2023).

What was measured:
[1] = target: Cannabinoid receptor 1 (Homo sapiens, UniProt P21554); format: functional, cell-based
[2] = target: Voltage-dependent L-type calcium channel subunit alpha-1C (Rattus norvegicus, UniProt P22002); format: functional
[3] = target: T1, Alpha-2C adrenergic receptor (Homo sapiens, UniProt P18825); format: functional
T1 sequence (P18825 whole entry): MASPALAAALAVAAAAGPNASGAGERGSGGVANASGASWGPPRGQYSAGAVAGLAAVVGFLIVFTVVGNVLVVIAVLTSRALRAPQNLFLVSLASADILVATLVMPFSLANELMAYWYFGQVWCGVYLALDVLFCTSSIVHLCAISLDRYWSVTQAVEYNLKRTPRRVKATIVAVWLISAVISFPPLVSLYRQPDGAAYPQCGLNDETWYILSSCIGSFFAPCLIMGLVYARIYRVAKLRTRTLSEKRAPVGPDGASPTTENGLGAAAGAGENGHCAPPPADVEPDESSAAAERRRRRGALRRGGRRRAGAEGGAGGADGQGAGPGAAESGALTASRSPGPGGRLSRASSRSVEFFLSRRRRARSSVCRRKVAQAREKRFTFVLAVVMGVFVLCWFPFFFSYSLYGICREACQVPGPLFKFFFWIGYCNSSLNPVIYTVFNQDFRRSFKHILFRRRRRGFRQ

[4] = target: T2, Neuropeptide Y receptor type 1 (Homo sapiens, UniProt P25929)
T2 sequence (P25929 whole entry): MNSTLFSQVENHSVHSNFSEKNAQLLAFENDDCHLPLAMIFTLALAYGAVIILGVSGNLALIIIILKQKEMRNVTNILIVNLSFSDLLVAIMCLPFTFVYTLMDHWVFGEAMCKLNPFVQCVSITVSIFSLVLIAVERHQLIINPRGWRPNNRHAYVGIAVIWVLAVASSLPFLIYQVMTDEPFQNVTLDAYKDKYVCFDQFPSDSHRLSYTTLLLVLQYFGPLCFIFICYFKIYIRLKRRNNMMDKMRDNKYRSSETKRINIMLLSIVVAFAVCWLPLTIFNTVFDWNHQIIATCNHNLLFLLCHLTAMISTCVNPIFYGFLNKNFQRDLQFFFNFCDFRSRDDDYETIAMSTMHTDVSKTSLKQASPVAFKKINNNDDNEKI

[5] = target: T3, Alpha-2A adrenergic receptor (Homo sapiens, UniProt P08913); format: functional, cell-based
T3 sequence (P08913 whole entry): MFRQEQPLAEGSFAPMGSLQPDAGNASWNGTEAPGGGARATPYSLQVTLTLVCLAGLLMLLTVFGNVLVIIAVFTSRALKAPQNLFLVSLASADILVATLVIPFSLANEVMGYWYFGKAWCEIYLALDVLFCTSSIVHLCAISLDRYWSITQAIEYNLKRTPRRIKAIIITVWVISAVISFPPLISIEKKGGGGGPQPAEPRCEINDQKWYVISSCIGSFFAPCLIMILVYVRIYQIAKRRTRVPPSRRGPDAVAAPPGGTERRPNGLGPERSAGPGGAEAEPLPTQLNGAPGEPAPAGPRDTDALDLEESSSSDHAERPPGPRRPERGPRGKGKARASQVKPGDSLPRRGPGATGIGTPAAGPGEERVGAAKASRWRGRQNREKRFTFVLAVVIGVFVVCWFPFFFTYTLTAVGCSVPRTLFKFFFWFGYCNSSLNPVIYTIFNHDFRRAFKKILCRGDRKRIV

[6] = target: T4, Cholecystokinin receptor type A (Homo sapiens, UniProt P32238)
T4 sequence (P32238 whole entry): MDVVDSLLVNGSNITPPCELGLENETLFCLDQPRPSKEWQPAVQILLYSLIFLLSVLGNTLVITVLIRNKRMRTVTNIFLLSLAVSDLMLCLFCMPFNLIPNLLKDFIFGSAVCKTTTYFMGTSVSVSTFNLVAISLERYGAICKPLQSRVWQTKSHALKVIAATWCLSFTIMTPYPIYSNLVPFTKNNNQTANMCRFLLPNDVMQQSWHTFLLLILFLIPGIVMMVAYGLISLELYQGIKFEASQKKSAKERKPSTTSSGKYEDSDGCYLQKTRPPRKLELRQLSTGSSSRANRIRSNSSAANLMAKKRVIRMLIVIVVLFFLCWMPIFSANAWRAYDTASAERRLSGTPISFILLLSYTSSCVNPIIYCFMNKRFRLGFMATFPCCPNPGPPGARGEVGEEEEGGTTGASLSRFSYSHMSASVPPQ

[7] = target: T5, Muscarinic acetylcholine receptor M1 (Homo sapiens, UniProt P11229); format: functional
T5 sequence (P11229 whole entry): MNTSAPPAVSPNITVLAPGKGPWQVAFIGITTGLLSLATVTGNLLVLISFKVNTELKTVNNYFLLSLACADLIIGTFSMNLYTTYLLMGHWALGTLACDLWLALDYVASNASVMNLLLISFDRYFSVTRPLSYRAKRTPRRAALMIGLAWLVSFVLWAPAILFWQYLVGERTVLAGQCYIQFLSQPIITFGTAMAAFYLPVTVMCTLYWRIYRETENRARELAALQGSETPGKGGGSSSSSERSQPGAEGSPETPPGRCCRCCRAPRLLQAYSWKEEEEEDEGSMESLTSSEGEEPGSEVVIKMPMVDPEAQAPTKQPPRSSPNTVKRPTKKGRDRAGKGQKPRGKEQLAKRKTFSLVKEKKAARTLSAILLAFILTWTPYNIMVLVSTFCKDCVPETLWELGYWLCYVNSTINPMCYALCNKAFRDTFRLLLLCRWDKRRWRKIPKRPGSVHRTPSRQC

[8] = target: Adenosine receptor A2a (Homo sapiens, UniProt P29274)
Chain of Adenosine receptor A2a (P29274 whole entry): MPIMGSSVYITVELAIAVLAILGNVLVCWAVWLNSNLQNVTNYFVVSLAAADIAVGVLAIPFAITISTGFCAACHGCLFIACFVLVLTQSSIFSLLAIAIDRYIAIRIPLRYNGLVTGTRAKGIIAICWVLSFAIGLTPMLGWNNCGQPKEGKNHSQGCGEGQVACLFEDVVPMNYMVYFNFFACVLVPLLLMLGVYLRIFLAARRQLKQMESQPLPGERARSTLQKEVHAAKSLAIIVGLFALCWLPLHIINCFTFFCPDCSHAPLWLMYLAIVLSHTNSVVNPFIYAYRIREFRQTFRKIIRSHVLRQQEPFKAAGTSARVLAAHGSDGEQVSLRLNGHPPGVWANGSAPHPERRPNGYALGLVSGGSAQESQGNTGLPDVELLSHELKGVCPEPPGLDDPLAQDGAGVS

[9] = target: T6, Amine oxidase [flavin-containing] A (Homo sapiens, UniProt P21397); format: functional
T6 sequence (P21397 whole entry): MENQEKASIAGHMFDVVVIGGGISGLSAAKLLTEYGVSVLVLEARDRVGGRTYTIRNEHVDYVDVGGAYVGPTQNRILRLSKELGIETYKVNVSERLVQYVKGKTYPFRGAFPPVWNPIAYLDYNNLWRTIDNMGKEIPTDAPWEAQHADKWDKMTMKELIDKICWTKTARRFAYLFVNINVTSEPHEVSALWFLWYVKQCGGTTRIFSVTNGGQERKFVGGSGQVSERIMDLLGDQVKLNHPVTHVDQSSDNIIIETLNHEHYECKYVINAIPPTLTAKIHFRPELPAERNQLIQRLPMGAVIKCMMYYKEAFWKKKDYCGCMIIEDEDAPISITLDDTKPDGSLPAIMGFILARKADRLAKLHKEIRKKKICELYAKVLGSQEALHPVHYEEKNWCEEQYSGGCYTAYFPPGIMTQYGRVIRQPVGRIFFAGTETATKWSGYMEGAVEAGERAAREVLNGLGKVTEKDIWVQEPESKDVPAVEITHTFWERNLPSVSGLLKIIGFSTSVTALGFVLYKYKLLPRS
Further: assay procedure not described here.

Chain of Voltage-dependent L-type calcium channel subunit alpha-1C (P22002 whole entry): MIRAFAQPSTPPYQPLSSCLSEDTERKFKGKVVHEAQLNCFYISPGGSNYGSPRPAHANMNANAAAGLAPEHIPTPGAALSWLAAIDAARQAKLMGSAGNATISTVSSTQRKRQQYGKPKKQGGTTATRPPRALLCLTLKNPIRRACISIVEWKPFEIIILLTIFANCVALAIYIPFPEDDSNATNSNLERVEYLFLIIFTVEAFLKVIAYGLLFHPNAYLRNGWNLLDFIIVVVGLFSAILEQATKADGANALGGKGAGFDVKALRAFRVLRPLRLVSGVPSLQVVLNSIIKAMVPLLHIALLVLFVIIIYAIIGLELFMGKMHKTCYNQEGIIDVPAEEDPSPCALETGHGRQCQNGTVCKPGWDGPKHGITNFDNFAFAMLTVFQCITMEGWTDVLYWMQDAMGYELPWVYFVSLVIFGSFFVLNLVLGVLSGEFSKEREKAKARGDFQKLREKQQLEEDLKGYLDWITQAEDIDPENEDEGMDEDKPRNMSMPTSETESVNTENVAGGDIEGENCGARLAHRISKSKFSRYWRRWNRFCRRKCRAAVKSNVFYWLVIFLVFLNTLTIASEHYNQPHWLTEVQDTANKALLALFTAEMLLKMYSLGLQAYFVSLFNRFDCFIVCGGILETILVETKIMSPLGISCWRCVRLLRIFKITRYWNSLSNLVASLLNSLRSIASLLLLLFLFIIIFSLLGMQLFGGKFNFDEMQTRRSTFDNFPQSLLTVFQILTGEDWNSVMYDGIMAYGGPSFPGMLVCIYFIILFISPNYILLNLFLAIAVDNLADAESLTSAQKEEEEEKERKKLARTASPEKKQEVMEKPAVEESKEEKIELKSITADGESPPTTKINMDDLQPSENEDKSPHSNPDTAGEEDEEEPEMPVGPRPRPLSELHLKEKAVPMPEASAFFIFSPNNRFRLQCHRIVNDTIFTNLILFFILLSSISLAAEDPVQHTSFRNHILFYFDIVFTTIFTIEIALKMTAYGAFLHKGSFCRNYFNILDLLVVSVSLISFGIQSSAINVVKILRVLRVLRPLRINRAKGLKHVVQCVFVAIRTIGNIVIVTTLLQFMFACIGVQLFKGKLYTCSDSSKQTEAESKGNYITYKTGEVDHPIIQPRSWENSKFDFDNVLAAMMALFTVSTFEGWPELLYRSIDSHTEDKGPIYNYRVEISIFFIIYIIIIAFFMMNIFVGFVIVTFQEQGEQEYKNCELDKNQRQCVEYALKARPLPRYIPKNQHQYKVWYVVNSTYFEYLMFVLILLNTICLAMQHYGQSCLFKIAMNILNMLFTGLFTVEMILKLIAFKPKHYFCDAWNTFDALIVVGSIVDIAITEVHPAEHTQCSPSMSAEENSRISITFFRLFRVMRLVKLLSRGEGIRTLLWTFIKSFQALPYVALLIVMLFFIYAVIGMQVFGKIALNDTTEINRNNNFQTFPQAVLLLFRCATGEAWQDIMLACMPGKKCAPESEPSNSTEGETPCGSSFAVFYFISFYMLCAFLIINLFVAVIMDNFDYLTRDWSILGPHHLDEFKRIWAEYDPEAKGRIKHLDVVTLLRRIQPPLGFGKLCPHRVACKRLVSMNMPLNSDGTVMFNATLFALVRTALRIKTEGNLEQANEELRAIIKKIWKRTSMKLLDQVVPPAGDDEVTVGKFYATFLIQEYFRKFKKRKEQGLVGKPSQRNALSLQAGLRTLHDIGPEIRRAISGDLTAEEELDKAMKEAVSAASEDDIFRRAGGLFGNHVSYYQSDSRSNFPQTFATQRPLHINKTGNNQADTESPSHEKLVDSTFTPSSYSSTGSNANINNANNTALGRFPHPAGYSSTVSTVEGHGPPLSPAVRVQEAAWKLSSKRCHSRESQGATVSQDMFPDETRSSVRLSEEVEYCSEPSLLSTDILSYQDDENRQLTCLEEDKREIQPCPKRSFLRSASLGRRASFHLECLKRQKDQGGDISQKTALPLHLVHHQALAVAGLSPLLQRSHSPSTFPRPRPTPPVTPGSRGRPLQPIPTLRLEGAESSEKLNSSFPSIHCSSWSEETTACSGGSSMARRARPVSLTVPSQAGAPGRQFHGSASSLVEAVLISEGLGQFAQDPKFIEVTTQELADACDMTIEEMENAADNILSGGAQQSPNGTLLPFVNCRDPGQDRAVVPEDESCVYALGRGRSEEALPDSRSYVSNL
Chain of Cannabinoid receptor 1 (P21554 whole entry): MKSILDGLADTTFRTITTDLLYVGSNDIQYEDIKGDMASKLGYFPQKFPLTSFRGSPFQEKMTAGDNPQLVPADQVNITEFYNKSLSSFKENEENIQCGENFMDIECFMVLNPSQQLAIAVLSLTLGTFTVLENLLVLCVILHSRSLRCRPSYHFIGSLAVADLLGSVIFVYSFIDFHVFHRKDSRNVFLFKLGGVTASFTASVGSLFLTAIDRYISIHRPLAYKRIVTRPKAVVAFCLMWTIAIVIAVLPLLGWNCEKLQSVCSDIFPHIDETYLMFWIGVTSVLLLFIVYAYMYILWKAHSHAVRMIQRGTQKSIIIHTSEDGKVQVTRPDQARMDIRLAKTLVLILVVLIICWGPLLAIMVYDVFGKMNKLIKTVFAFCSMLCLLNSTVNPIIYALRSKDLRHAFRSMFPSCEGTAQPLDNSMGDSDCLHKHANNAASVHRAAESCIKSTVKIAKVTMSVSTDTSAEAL

Row | SMILES | AC50 [1] | AC50 [2] | AC50 [3] | AC50 [4] | AC50 [5] | AC50 [6] | AC50 [7] | AC50 [8] | AC50 [9]
1 | COc1ccc(C(=O)c2ccccc2)c(O)c1 [OXYBENZONE] | > 30 µM | – | > 30 µM | – | > 30 µM | – | > 30 µM | – | > 30 µM
2 | CCn1c(=O)c2c(nc(/C=C/c3ccc(OC)c(OC)c3)n2C)n(CC)c1=O [ISTRADEFYLLINE] | – | – | > 30 µM | – | – | – | > 30 µM | – | > 30 µM
3 | Cc1cn(-c2cc(NC(=O)c3ccc(C)c(Nc4nccc(-c5cnccn5)n4)c3)cc(C(F)(F)F)c2)cn1 [RADOTINIB] | – | – | > 30 µM | – | – | – | > 30 µM | > 30 µM | > 30 µM
4 | Cc1ccc(O)c([C@H](CCN(C(C)C)C(C)C)c2ccccc2)c1 [TOLTERODINE] | > 30 µM | > 10 µM | > 10 µM | – | > 10 µM | – | 0.0051 µM | – | > 10 µM
5 | N=C(N)NC(=O)c1nc(Cl)c(N)nc1N [AMILORIDE] | – | > 30 µM | > 30 µM | > 30 µM | > 30 µM | > 30 µM | – | > 30 µM | 4.41 µM
6 | C[C@]12CCC(=O)C=C1[C@@H]1C[C@@H]1[C@H]1[C@@H]3[C@@H]4C[C@@H]4[C@@]4(CCC(=O)O4)[C@@]3(C)CC[C@@H]12 [DROSPIRENONE] | – | > 30 µM | > 30 µM | > 30 µM | > 30 µM | > 30 µM | > 30 µM | > 30 µM | > 30 µM
7 | CC(C)(C)NCC(O)COc1ccccc1C#N (stereo not given) [BUNITROLOL] | > 30 µM | – | > 30 µM | – | > 30 µM | – | > 30 µM | – | 14 µM
8 | Oc1cc(Cl)ccc1Oc1ccc(Cl)cc1Cl [TRICLOSAN] | > 30 µM | – | > 30 µM | > 30 µM | > 30 µM | > 30 µM | > 30 µM | > 30 µM | > 30 µM
9 | COc1cccc2c1C(=O)c1c(O)c3c(c(O)c1C2=O)C[C@@](O)(C(=O)CO)C[C@@H]3O[C@H]1C[C@H](N)[C@H](O)[C@H](C)O1 [DOXORUBICIN] | > 30 µM | > 10 µM | > 30 µM | > 30 µM | 12 µM | > 30 µM | – | > 30 µM | > 30 µM

Second part, the compound after the results:

Row | AC50 [1] | AC50 [2] | AC50 [3] | AC50 [4] | AC50 [5] | AC50 [6] | AC50 [7] | AC50 [8] | AC50 [9] | SMILES
10 | > 30 µM | > 30 µM | > 30 µM | > 30 µM | > 30 µM | > 30 µM | > 30 µM | > 30 µM | – | CC(C)(Oc1ccc(Cl)cc1)C(=O)OCCOC(=O)c1cccnc1 [ETOFIBRATE]
11 | > 30 µM | > 10 µM | > 10 µM | > 10 µM | > 10 µM | > 10 µM | > 10 µM | > 10 µM | > 10 µM | CN(C)[C@@H]1C(O)=C(C(=O)NCN2CCCC2)C(=O)[C@@]2(O)C(O)=C3C(=O)c4c(O)cccc4[C@@](C)(O)[C@H]3C[C@@H]12 [ROLITETRACYCLINE]
12 | – | > 10 µM | 4.5 µM | > 10 µM | > 10 µM | > 10 µM | 0.12 µM | > 10 µM | > 10 µM | CCC(=O)c1ccc2c(c1)N(CC(C)N(C)C)c1ccccc1S2 (stereo not given) [PROPIOMAZINE]
13 | > 30 µM | > 30 µM | > 30 µM | 9.8 µM | > 30 µM | > 10 µM | > 30 µM | 11 µM | 7.4 µM | COc1ccc(-c2cc(=S)ss2)cc1 [ANETHOLTRITHION]
14 | > 30 µM | > 10 µM | > 10 µM | > 10 µM | > 10 µM | > 10 µM | > 10 µM | > 10 µM | > 10 µM | CN(C)CCC(O)(c1ccccc1)c1ccccc1Cl (stereo not given) [CHLOPHEDIANOL]
15 | > 30 µM | > 10 µM | > 10 µM | > 30 µM | > 10 µM | > 30 µM | – | > 30 µM | > 10 µM | C[C@]12C=CC(=O)C=C1CC[C@@H]1[C@@H]2[C@@H](O)C[C@@]2(C)[C@H]1CC[C@]2(O)C(=O)CO [PREDNISOLONE]
16 | > 30 µM | – | > 30 µM | > 30 µM | > 30 µM | > 30 µM | > 30 µM | > 30 µM | > 30 µM | C[C@]12C=CC(=O)C=C1C(Cl)=C[C@@H]1[C@@H]2[C@@H](O)C[C@@]2(C)[C@H]1CC[C@]2(O)C(=O)CO [CLOPREDNOL]
17 | > 30 µM | > 30 µM | > 30 µM | > 30 µM | > 30 µM | > 30 µM | – | > 30 µM | > 30 µM | CC1(C)O[C@@H]2C[C@H]3[C@@H]4CCC5=CC(=O)C=C[C@]5(C)[C@@]4(F)[C@@H](O)C[C@]3(C)[C@]2(C(=O)CO)O1 [TRIAMCINOLONE ACETONIDE]
18 | > 30 µM | > 30 µM | > 30 µM | > 30 µM | > 30 µM | > 30 µM | > 30 µM | > 30 µM | > 30 µM | C[C@]12CCC(=O)C=C1C=C[C@@H]1[C@@H]2CC[C@@]2(C)[C@H]1CC[C@@]21CCC(=O)O1 [CANRENONE]
